# US20260014210A1, “SYMBIOTIC BACTERIUM IN HUMANS FOR PROMOTING HAIR GROWTH AND USE THEREOF” (priority 2022, published 2026)
# What was measured:
# ShC4 strain = experiment: ShC4 antibiotic sensitivity test (antibiotic sensitivity tablets); assay type: cell-based, Staphylococcus hominis; conditions: for Mean diameter (mm) of inhibitory ring: antibiotic content per tablet, 36±1° C., 24 hours, three replicates; for sensitivity of ShC4 strain to the antibiotic (in words): summary of Table 1
# [1] = system: Dunkin Hartley guinea pigs; conditions: 200 μL applied on D0, D7, D14, provocation D28; ShC4 2E10 CFU; scored to 72 hours after stimulation
# [2] = standard for tetracycline and minocycline
# [3] = standard for oxacillin and piperacillin
# [4] = standard for penicillin and ampicillin
Compound,Mean diameter (mm) of inhibitory ring (ShC4 strain) [mm],sensitivity of ShC4 strain to the antibiotic (in words) (ShC4 strain),also measured
CN(C)[C@@H]1C(O)=C(C(N)=O)C(=O)[C@@]2(O)C(O)=C3C(=O)c4c(O)cccc4[C@@](C)(O)[C@H]3C[C@@H]12 [tetracycline],25.85,–,Sensitivity (ShC4 strain; [2]): S (≥19)
"Cc1onc(-c2ccccc2)c1C(=O)N[C@@H]1C(=O)N2[C@@H]1SC(C)(C)[C@@H]2C(=O)O [Oxacillin (OX), Oxacillin]",29.4,sensitive,Sensitivity (ShC4 strain; [3]): S (≥18)
CN(C)c1ccc(O)c2c1C[C@H]1C[C@H]3[C@H](N(C)C)C(O)=C(C(N)=O)C(=O)[C@@]3(O)C(O)=C1C2=O [minocycline],29.33,–,Sensitivity (ShC4 strain; [2]): S (≥19)
Penicillin [Penicillin (P)],15.72,resistance,Sensitivity (ShC4 strain; [4]): R (≤28)
CC[C@H]1OC(=O)[C@H](C)[C@@H](O[C@H]2C[C@@](C)(OC)[C@@H](O)[C@H](C)O2)[C@H](C)[C@@H](O[C@@H]2O[C@H](C)C[C@H](N(C)C)[C@H]2O)[C@](C)(O)C[C@@H](C)C(=O)[C@H](C)[C@@H](O)[C@]1(C)O [erythromycin],23.96,sensitive,Sensitivity (ShC4 strain; standard for erythromycin): S (≥23)
CCN1CCN(C(=O)N[C@@H](C(=O)N[C@@H]2C(=O)N3[C@@H]2SC(C)(C)[C@@H]3C(=O)O)c2ccccc2)C(=O)C1=O [Piperacillin],18.86,sensitive,Sensitivity (ShC4 strain; [3]): S (≥18)
"2,4-dinitrochlorobenzene [CDNB]",–,–,allergy rate [1]: 100%
cotrimoxazole,0,resistance,–
CC1(C)S[C@@H]2[C@H](NC(=O)[C@H](N)c3ccccc3)C(=O)N2[C@H]1C(=O)O [ampicillin],16.69,resistance,Sensitivity (ShC4 strain; [4]): R (≤28)
